This assay concerns the target human RIP1 kinase domain (2-375) (Homo sapiens (Human), UniProt Q13546). Kind of assay: biochemical. The class given is biochemical. In short, it runs like this:
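50 nM purified kinase domain from baculovirus-infected insect cells, incubated 2 h with compound in 50 mM Hepes pH 7.5, 30 mM MgCl2, 1 mM DTT, 50 uM ATP, 0.002% Brij-35, 0.5% DMSO. ADP formation read by Transcreener FP at 633 nm excitation. Ki^app fitted with the Morrison tight-binding equation.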

[1] abbreviates: tight-binding apparent inhibition constant, human RIP1 kinase domain (2-375) 50 nM, 50 uM ATP, 2 hours, read-out: Ki.

“And” between values parts separate entries of the source, which are not always exact repeats. Equal values may be shown once. Read-outs that look alike come from different tables or passages of the source.

human RIP1 kinase domain (2-375), sequence (Q13546 2-375): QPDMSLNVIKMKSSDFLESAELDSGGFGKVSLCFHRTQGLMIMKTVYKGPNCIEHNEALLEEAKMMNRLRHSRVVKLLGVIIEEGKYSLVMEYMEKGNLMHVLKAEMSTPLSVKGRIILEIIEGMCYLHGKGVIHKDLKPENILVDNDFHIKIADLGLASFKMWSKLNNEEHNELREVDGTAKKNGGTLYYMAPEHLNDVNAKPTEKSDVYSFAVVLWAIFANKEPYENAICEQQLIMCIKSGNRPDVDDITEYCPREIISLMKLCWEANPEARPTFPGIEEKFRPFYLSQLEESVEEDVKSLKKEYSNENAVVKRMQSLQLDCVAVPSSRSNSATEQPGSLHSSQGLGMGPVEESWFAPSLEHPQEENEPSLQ

`Cc1cc2n(n1)CC[C@H](NC(=O)c1ncc3c(n1)C1(CCCC1)OC3)C(=O)N2C` [Example 552, N-[(6S)-2,4-dimethyl-5-oxo-7,8-dihydro-6H-pyrazolo[1,5-a][1,3]diazepin-6-yl]spiro[5H-furo[3,4-d]pyrimidine-7,1′-cyclopentane]-2-carboxamide]: the Ki under setting [1] turned out to be 110 nM.

Turning to `CN1C(=O)[C@@H](NC(=O)c2nc3n(n2)CCCC3c2ccccc2)COc2ccccc21` (stereo partly drawn) [Example 553, 8-phenyl-N-[(3S)-5-methyl-4-oxo-2,3-dihydro-1,5-benzoxazepin-3-yl]-5,6,7,8-tetrahydro-[1,2,4]triazolo[1,5-a]pyridine-2-carboxamide], the Ki under setting [1] is 8.7 nM.

In the case of `Cc1cc2n(n1)CC[C@H](NC(=O)c1nc3n(n1)CCCC3c1ccccc1)C(=O)N2C` (stereo partly drawn) [Example 554, 8-phenyl-N-[(6S)-2,4-dimethyl-5-oxo-7,8-dihydro-6H-pyrazolo[1,5-a][1,3]diazepin-6-yl]-5,6,7,8-tetrahydro-[1,2,4]triazolo[1,5-a]pyridine-2-carboxamide], the Ki under setting [1] came to 330 nM.

As for `Cc1cc2n(n1)CC[C@H](NC(=O)c1ncn(CC3CC(C)(C)C3)n1)C(=O)N2C` [Example 555, 1-[(3,3-dimethylcyclobutyl)methyl]-N-(6S)-2,4-dimethyl-5-oxo-7,8-dihydro-6H-pyrazolo[1,5-a][1,3]diazepin-6-yl-1,2,4-triazole-3-carboxamide], the Ki under setting [1] is 43 nM.

`CN1C(=O)[C@@H](NC(=O)c2ncc3c(n2)C(C)(C)S(=O)(=O)C3)COc2ccccc21` [Example 556, 7,7-dimethyl-6,6-dioxo-N-[(3S)-5-methyl-4-oxo-2,3-dihydro-1,5-benzoxazepin-3-yl]-5H-thieno[3,4-d]pyrimidine-2-carboxamide]: the Ki under setting [1] is 2700 nM.

Turning to `CN1C(=O)[C@@H](NC(=O)c2ncc3cnn(C4CCOCC4)c3n2)COc2ccccc21` [Example 558, N-[(3S)-5-methyl-4-oxo-2,3-dihydro-1,5-benzoxazepin-3-yl]-1-tetrahydropyran-4-yl-pyrazolo[3,4-d]pyrimidine-6-carboxamide], for the setting “Ki”, the Ki stood at 39 nM.

As for `Cc1cc2n(n1)CC[C@H](NC(=O)c1ncc3cnn(C4CCOCC4)c3n1)C(=O)N2C` [Example 559, N-[(6S)-2,4-dimethyl-5-oxo-7,8-dihydro-6H-pyrazolo[1,5-a][1,3]diazepin-6-yl]-1-tetrahydropyran-4-yl-pyrazolo[3,4-d]pyrimidine-6-carboxamide], the Ki under setting [1] turned out to be 570 nM.

`Cc1cc2n(n1)CC[C@H](NC(=O)c1ncn(CC3(C)CCC3)n1)C(=O)N2C` [Example 560, 1-[(1-methylcyclobutyl)methyl]-N-(6S)-2,4-dimethyl-5-oxo-7,8-dihydro-6H-pyrazolo[1,5-a][1,3]diazepin-6-yl-1,2,4-triazole-3-carboxamide]: the Ki under setting [1] is 140 nM.

For the compound `CN1C(=O)[C@@H](NC(=O)c2ncn(CC3(C)CCC3)n2)CCn2nc(C3CC3)cc21` [Example 561], under setting [1], the Ki worked out at 100 nM.

Turning to `CN1C(=O)[C@@H](NC(=O)c2nc3n(n2)CCOC32CCCC2)COc2ccccc21` [Example 562, N-[(3S)-5-methyl-4-oxo-2,3-dihydro-1,5-benzoxazepin-3-yl]spiro[5,6-dihydro-[1,2,4]triazolo[5,1-c][1,4]oxazine-8,1′-cyclopentane]-2-carboxamide], under setting [1], the Ki was determined as 20 nM.

Regarding `CN1C(=O)[C@@H](NC(=O)c2ncc3cnn(C4CCCOC4)c3n2)COc2ccccc21` (stereo partly drawn) [Example 563, N-[(3S)-5-methyl-4-oxo-2,3-dihydro-1,5-benzoxazepin-3-yl]-1-tetrahydropyran-3-yl-pyrazolo[3,4-d]pyrimidine-6-carboxamide], the Ki under setting [1] came out at 54 nM.

As for `CCCC1(C)OCc2cnc(C(=O)N[C@H]3CCn4nc(C)cc4N(C)C3=O)nc21` (stereo partly drawn) [Example 564, 7-methyl-7-propyl-N-[(6S)-2,4-dimethyl-5-oxo-7,8-dihydro-6H-pyrazolo[1,5-a][1,3]diazepin-6-yl]-5H-furo[3,4-d]pyrimidine-2-carboxamide], the Ki under setting [1] turned out to be 590 nM.

With `CN1C(=O)[C@@H](NC(=O)c2ncc3c(n2)C2(CCCC2)OC3)CCn2nccc21` [Example 565, N-[(6S)-4-methyl-5-oxo-7,8-dihydro-6H-pyrazolo[1,5-a][1,3]diazepin-6-yl]spiro[5H-furo [3,4-d]pyrimidine-7,1′-cyclopentane]-2-carboxamide], under setting [1], the Ki worked out at 70 nM.

In the case of `CCCC1(C)OCc2cnc(C(=O)N[C@H]3CCn4nccc4N(C)C3=O)nc21` (stereo partly drawn) [Example 566, 7-methyl-7-propyl-N-[(6S)-4-methyl-5-oxo-7,8-dihydro-6H-pyrazolo[1,5-a][1,3]diazepin-6-yl]-5H-furo[3,4-d]pyrimidine-2-carboxamide], the Ki under setting [1] was determined as 480 nM.

Regarding `Cc1cc2n(n1)CC[C@H](NC(=O)c1nc3n(n1)CCOC31CCCC1)C(=O)N2C` [Example 567, N-[(6S)-2,4-dimethyl-5-oxo-7,8-dihydro-6H-pyrazolo[1,5-a][1,3]diazepin-6-yl]spiro[5,6-dihydro-[1,2,4]triazolo[5,1-c][1,4]oxazine-8,1′-cyclopentane]-2-carboxamide], the Ki under setting [1] is 410 nM.

As for `CN1C(=O)[C@@H](NC(=O)c2nc3c(-c4ccccc4)cccn3n2)COc2ccccc21` [Example 568, 8-phenyl-N-[(3S)-5-methyl-4-oxo-2,3-dihydro-1,5-benzoxazepin-3-yl]-[1,2,4]triazolo[1,5-a]pyridine-2-carboxamide], the Ki under setting [1] was found to be 8.1 nM.

As to `Cc1cc2n(n1)CC[C@H](NC(=O)c1ncn(CC3CCC(F)(F)C3)n1)C(=O)N2C` (stereo partly drawn) [Example 569, 1-[(3,3-difluorocyclopentyl)methyl]-N-(6S)-2,4-dimethyl-5-oxo-7,8-dihydro-6H-pyrazolo[1,5-a][1,3]diazepin-6-yl-1,2,4-triazole-3-carboxamide], the Ki under setting [1] was determined as 580 nM.

As for `CN1C(=O)[C@@H](NC(=O)c2ncn(Cc3ccccc3)n2)CCn2nc(C3(F)CC3)cc21` [Example 570, 1-benzyl-N-(6S)-2-(1-fluorocyclopropyl)-4-methyl-5-oxo-7,8-dihydro-6H-pyrazolo[1,5-a][1,3]diazepin-6-yl-1,2,4-triazole-3-carboxamide], the Ki under setting [1] is 24 nM.

`CN1C(=O)[C@@H](NC(=O)c2nc3n(n2)CCC3c2ccccc2)COc2ccccc21` (stereo partly drawn) [Example 571, 7-phenyl-N-[(3S)-5-methyl-4-oxo-2,3-dihydro-1,5-benzoxazepin-3-yl]-6,7-dihydro-5H-pyrrolo[1,2-b][1,2,4]triazole-2-carboxamide]: the Ki under setting [1] worked out at 23 nM.

As for `CN1C(=O)[C@@H](NC(=O)c2nc3n(n2)CC[C@H]3c2ccccc2)COc2ccccc21` [Example 572, (7S)-7-phenyl-N-[(3S)-5-methyl-4-oxo-2,3-dihydro-1,5-benzoxazepin-3-yl]-6,7-dihydro-5H-pyrrolo[1,2-b][1,2,4]triazole-2-carboxamide], the Ki under setting [1] stood at 450 nM.

For the compound `CN1C(=O)[C@@H](NC(=O)c2nc3n(n2)CC[C@@H]3c2ccccc2)COc2ccccc21` [Example 573, (7R)-7-phenyl-N-[(3S)-5-methyl-4-oxo-2,3-dihydro-1,5-benzoxazepin-3-yl]-6,7-dihydro-5H-pyrrolo[1,2-b][1,2,4]triazole-2-carboxamide], the Ki under setting [1] was determined as 17 nM.

With `Cc1cc2n(n1)CC[C@H](NC(=O)c1nc3n(n1)CCC3c1ccccc1)C(=O)N2C` (stereo partly drawn) [Example 574, 7-phenyl-N-[(6S)-2,4-dimethyl-5-oxo-7,8-dihydro-6H-pyrazolo[1,5-a][1,3]diazepin-6-yl]-6,7-dihydro-5H-pyrrolo[1,2-b][1,2,4]triazole-2-carboxamide], under setting [1], the Ki was 58 nM.

`Cc1ncc2n1CC[C@@H](NC(=O)c1ncn(Cc3ccccc3F)n1)C(=O)N2C` [Example 576, 1-[(2-fluorophenyl)methyl]-N-(3R)-1,7-dimethyl-2-oxo-4,5-dihydro-3H-imidazo[1,5-a][1, 3]diazepin-3-yl-1,2,4-triazole-3-carboxamide]: under setting [1], the Ki worked out at 40 nM.

As for `Cc1ncc2n1CC[C@@H](NC(=O)c1ncn(Cc3cc(F)ccc3F)n1)C(=O)N2C` [Example 577, 1-[(2,5-difluorophenyl)methyl]-N-(3R)-1,7-dimethyl-2-oxo-4,5-dihydro-3H-imidazo[1,5-a][1,3]diazepin-3-yl-1,2,4-triazole-3-carboxamide], the Ki under setting [1] came to 80 nM.

On to `Cc1ncc2n1CC[C@@H](NC(=O)c1ncn(Cc3c(F)cccc3F)n1)C(=O)N2C` [Example 578, 1-[(2,6-difluorophenyl)methyl]-N-[(3R)-1,7-dimethyl-2-oxo-4,5-dihydro-3H-imidazo[1,5-a][1,3]diazepin-3-yl]-1,2,4-triazole-3-carboxamide], for which the Ki under setting [1] was 40 nM.

For `CN1C(=O)[C@@H](NC(=O)c2nc3n(n2)CCC3c2ccccc2)CCn2nccc21` (stereo partly drawn) [Example 579, 7-phenyl-N-[(6S)-4-methyl-5-oxo-7,8-dihydro-6H-pyrazolo[1,5-a][1,3]diazepin-6-yl]-6,7-dihydro-5H-pyrrolo[1,2-b][1,2,4]triazole-2-carboxamide], the Ki under setting [1] came out at 37 nM.

For the compound `Cc1ncn2c1N(C)C(=O)[C@H](NC(=O)c1ncn(Cc3ccccc3F)n1)CC2` [Example 580, 1-[(2-fluorophenyl)methyl]-N-[(3R)-1,9-dimethyl-2-oxo-4,5-dihydro-3H-imidazo[1,5-a][1,3]diazepin-3-yl]-1,2,4-triazole-3-carboxamide], the Ki under setting [1] came to 54 nM.

Regarding `Cc1ncn2c1N(C)C(=O)[C@H](NC(=O)c1ncn(Cc3c(F)cccc3F)n1)CC2` [Example 581, 1-[(2,6-difluorophenyl)methyl]-N-(3R)-1,9-dimethyl-2-oxo-4,5-dihydro-3H-imidazo[1,5-a][1,3]diazepin-3-yl-1,2,4-triazole-3-carboxamide], the Ki under setting [1] was 47 nM.

Consider `CN1C(=O)[C@@H](NC(=O)c2ncn(Cc3ccccc3Cl)n2)CCn2nccc21` [Example 582, 1-[(2-chlorophenyl)methyl]-N-(6S)-4-methyl-5-oxo-7,8-dihydro-6H-pyrazolo[1,5-a][1,3]diazepin-6-yl-1,2,4-triazole-3-carboxamide], for which, under setting [1], the Ki is 7.6 nM and 43 nM.

The values above are taken from patent US10988459B2 (priority 2015, dated 2021).
